In publication PMC7673538 (PLoS Biology, 2020):
Values joined by “and” are separate entries in the source; they are usually repeats but may differ in a detail not shown here. Equal values may be shown once. Read-outs that look alike come from different tables or passages of the source.

How the values were obtained:
Test in all cases: microbe, parasite or virus in culture
[1] = tested on: EV-A71; assay type: cell-based, enterovirus A71; settings: for EC50: Enterovirus A
[2] = tested on: CV-B3; assay type: cell-based, coxsackievirus B3
[3] = tested on: CV-A24; assay type: cell-based, coxsackievirus A24
[4] = tested on: CV-A24v; assay type: cell-based, coxsackievirus A24v; settings: for EC50: Coxsackievirus
[5] = tested on: EV-D68; assay type: cell-based, enterovirus D68

`COc1ccc(N(Cc2ccc(F)cc2)C(=O)c2cc[nH]c2)cc1` [Compound 12a, N-(4-Fluorobenzyl)-N-(4-methoxyphenyl)-1H-pyrrole-3-carboxamide] was tested. Which “Figure 7 dose-response raw data, EV-A71 (triplicate values)” value (shortened to “Figure 7 dose-response raw data, EV-A71”) ([1]; Concentration 0.0046 µM) did it give?
The value was 12.3336 and 15.0352 and 19.2639.

What about the “Figure 7 dose-response raw data, EV-A71” value ([1]; Concentration 0.0137 µM) of the same compound?
The value was 12.3336 and 12.2161 and 11.2764.

What about the “Figure 7 dose-response raw data, EV-A71” value ([1]; Concentration 0.0412 µM) of the same compound?
Its value is 12.0987 and 12.2161 and 13.2733.

What about the “Figure 7 dose-response raw data, EV-A71” value ([1]; Concentration 0.1235 µM) of the same compound?
Its value is 11.9812 and 14.0955 and 13.6257.

What about the “Figure 7 dose-response raw data, EV-A71” value ([1]; Concentration 0.3704 µM) of the same compound?
The value was 12.5685 and 16.7972 and 13.6257.

And the “Figure 7 dose-response raw data, EV-A71” value ([1]; Concentration 1.1111 µM)?
The value was 12.3336 and 15.0352 and 19.2639.

And the “Figure 7 dose-response raw data, EV-A71” value ([1]; Concentration 3.3333 µM)?
Its value is 12.3336 and 15.0352 and 19.2639.

And the “Figure 7 dose-response raw data, EV-A71” value ([1]; Concentration 11.1111 µM)?
Its value is 119.819 and 116.746 and 110.126.

And the “Figure 7 dose-response raw data, EV-A71” value ([1]; Concentration 33.3333 µM)?
Its value is 119.701 and 118.637 and 111.781.

What about the “Figure 7 dose-response raw data, EV-A71” value ([1]; Concentration 100 µM) of the same compound?
The value was 110.819 and 116.746 and 120.126.

What about the EC50 ([1]; EVA71, HeLa R19, read-out: EC50 EV-A71) of the same compound?
Its EC50 is 4.03 ± 0.73 µM.

And the EC50 ([1]; EVA71, HeLa R19, read-out: EC50 EV-A71 strain BrCr)?
Its EC50 is 4.48 ± 0.42 µM.

What about the EC50 ([1]; EVA71, HeLa R19, read-out: EC50 EV-A71 strain TW/2728/04) of the same compound?
The EC50 was 8.33 ± 0.65 µM.

And the EC50 ([1]; EVA71, HeLa R19, read-out: EC50 EV-A71 strain TW/2945/98)?
Its EC50 is 9.17 ± 0.41 µM.

What about the EC50 ([1]; EVA71, HeLa R19, read-out: EC50 EV-A71 strain TW/70811/08) of the same compound?
Its EC50 is 8.18 ± 0.61 µM.

What about the EC50 ([1]; EVA71, HeLa R19, read-out: EC50 EV-A71 strain TW/72232/04) of the same compound?
Its EC50 is 6.41 ± 2.09 µM.

And the EC50 ([1]; EVA71, HeLa R19, read-out: EC50 EV-A71 strain TW/96016/08)?
The EC50 was 9.47 ± 0.04 µM.

What about the “cross-resistance of 19d-resistant CV-B3 virus pools (in words)” value [2] of the same compound?
The value was “cross-resistant”.

What about the “increase of antiviral activity against CV-B3” value [2] of the same compound?
The value was roughly 25 fold.

And the “Figure 7 dose-response raw data, CV-B3 (triplicate values)” value (from here on “Figure 7 dose-response raw data, CV-B3”) ([2]; Concentration 0.001 µM)?
The value was 10.6023 and 13.4886 and 15.1049.

And the “Figure 7 dose-response raw data, CV-B3” value ([2]; Concentration 0.0137 µM)?
The value was 31.7298 and 16.0285 and 26.5345.

And the “Figure 7 dose-response raw data, CV-B3” value ([2]; Concentration 0.3704 µM)?
Its value is 108.081 and 95.0938 and 115.255.

What about the “Figure 7 dose-response raw data, CV-B3” value ([2]; Concentration 1.1111 µM) of the same compound?
The value was 110.307 and 87.92 and 98.0623.

What about the “Figure 7 dose-response raw data, CV-B3” value ([2]; Concentration 3.3333 µM) of the same compound?
The value was 103.381 and 89.7753 and 100.165.

What about the “Figure 7 dose-response raw data, CV-B3” value ([2]; Concentration 10 µM) of the same compound?
Its value is 102.144 and 95.7122 and 98.0623.

And the EC50 ([2]; Enterovirus B, CVB3, HeLa)?
Its EC50 is 0.01 ± 0.01 µM.

What about the EC50 ([2]; Enterovirus B, CVB3, HeLa R19, […], read-out: EC50 Exp1) of the same compound?
The EC50 was 0.18 µM.

What about the EC50 ([2]; Enterovirus B, CVB3, HeLa R19, read-out: 50% effective concentration [EC50]) of the same compound?
The EC50 was 0.08 ± 0.08 µM.

And the EC50 ([2]; Enterovirus B, CVB3, HeLa R19, read-out: CV-B3 Exp 1 EC50)?
Its EC50 is 0.059 µM.

And the EC50 ([2]; Enterovirus B, CVB3, HeLa R19, read-out: CV-B3 Exp2 EC50)?
The EC50 was 0.095 µM.

And the EC50 ([2]; Enterovirus B, CVB3, HeLa R19, read-out: EC50 Average)?
Its EC50 is 0.0187 µM.

What about the EC50 ([2]; Enterovirus B, CVB3, HeLa R19, read-out: EC50 Exp1) of the same compound?
Its EC50 is 0.017 µM.

And the EC50 ([2]; Enterovirus B, CVB3, HeLa R19, read-out: EC50 Exp2)?
Its EC50 is 0.37 µM.

And the EC50 ([2]; Enterovirus B, CVB3, HeLa R19, read-out: EC50 HelaR19 Average)?
The EC50 was 0.0112 µM.

And the EC50 ([2]; Enterovirus B, CVB3, HeLa R19, read-out: Exp 1 EC50 HelaR19)?
Its EC50 is 0.004 µM.

What about the EC50 ([2]; Enterovirus B, CVB3, HeLa R19, read-out: Exp 2 EC50 HelaR19) of the same compound?
Its EC50 is 0.0183 µM.

And the EC50 ([2]; Enterovirus B, CVB3 / genotype 2c, HeLa R19, read-out: EC50 CV-B3 WT)?
Its EC50 is 0.02 ± 0.01 µM.

What about the EC50 ([2]; read-out: EC50 Exp2) of the same compound?
Its EC50 is 0.21 µM.

And the EC50 ([3]; Enterovirus C, CVA24, HeLa R19, read-out: EC50 Average)?
Its EC50 is 3.46 µM.

What about the EC50 ([3]; Enterovirus C, CVA24, HeLa R19, read-out: EC50 CV-A24) of the same compound?
Its EC50 is 3.51 ± 0.22 µM.

And the EC50 ([3]; Enterovirus C, CVA24, HeLa R19, read-out: EC50 CV-A24 strain Joseph)?
Its EC50 is 3.45 ± 0.42 µM.

And the EC50 ([3]; Enterovirus C, CVA24, HeLa R19, read-out: EC50 Exp1)?
Its EC50 is 3.29 µM.

And the EC50 ([3]; Enterovirus C, CVA24, HeLa R19, read-out: EC50 Exp2)?
Its EC50 is 3.73 µM.

And the EC50 ([3]; read-out: EC50 Exp1)?
The EC50 was 3.04 µM.

And the EC50 ([3]; read-out: EC50 Exp2)?
The EC50 was 3.87 µM.

And the “Figure 7 dose-response raw data, CV-A24v (triplicate values)” value (“Figure 7 dose-response raw data, CV-A24v” below) ([4]; Concentration 0.0046 µM)?
The value was 10.497 and 11.7005 and 9.1598.

And the “Figure 7 dose-response raw data, CV-A24v” value ([4]; Concentration 0.0137 µM)?
Its value is 16.1819 and 13.1094 and 20.3605.

And the “Figure 7 dose-response raw data, CV-A24v” value ([4]; Concentration 0.0412 µM)?
The value was 16.1819 and 13.1094 and 20.3605.

And the “Figure 7 dose-response raw data, CV-A24v” value ([4]; Concentration 0.1235 µM)?
Its value is 12.9865 and 12.4949 and 21.3437.

What about the “Figure 7 dose-response raw data, CV-A24v” value ([4]; Concentration 0.3704 µM) of the same compound?
The value was 12.7407 and 14.2155 and 15.1987.

And the “Figure 7 dose-response raw data, CV-A24v” value ([4]; Concentration 1.1111 µM)?
Its value is 10.0369 and 10.7743 and 14.83.

And the “Figure 7 dose-response raw data, CV-A24v” value ([4]; Concentration 3.3333 µM)?
Its value is 9.791 and 10.5285 and 14.2155.

And the “Figure 7 dose-response raw data, CV-A24v” value ([4]; Concentration 11.1111 µM)?
Its value is 82.2926 and 86.3728 and 89.8506.

And the “Figure 7 dose-response raw data, CV-A24v” value ([4]; Concentration 33.3333 µM)?
The value was 113.496 and 111 and 111.553.

And the “Figure 7 dose-response raw data, CV-A24v” value ([4]; Concentration 100 µM)?
The value was 106.3 and 102.374 and 110.232.

And the EC50 ([4]; HeLa R19, read-out: EC50 CV-A24v strain 110386)?
Its EC50 is 1.94 ± 0.07 µM.

What about the EC50 ([4]; HeLa R19, read-out: EC50 CV-A24v strain 110389) of the same compound?
Its EC50 is 3.77 ± 0.32 µM.

What about the EC50 ([4]; HeLa R19, read-out: EC50 CV-A24v strain 110390) of the same compound?
Its EC50 is 1.91 ± 0.55 µM.

What about the EC50 ([4]; HeLa R19, read-out: EC50 CV-A24v strain 110392) of the same compound?
Its EC50 is 2.32 ± 0.23 µM.

And the “cross-resistance of 19d-resistant EV-D68 virus pools (in words)” value [5]?
The value was “cross-resistance”.

And the “Figure 7 dose-response raw data, EV-D68 (triplicate values)” value (“Figure 7 dose-response raw data, EV-D68” for short) ([5]; Concentration 0.001 µM)?
The value was 11.1333 and 12.4782 and 12.9265.

And the “Figure 7 dose-response raw data, EV-D68” value ([5]; Concentration 0.0137 µM)?
Its value is 9.388 and 8.898 and 11.4747.

What about the “Figure 7 dose-response raw data, EV-D68” value ([5]; Concentration 0.0412 µM) of the same compound?
The value was 11.1333 and 12.4782 and 12.9265.

What about the “Figure 7 dose-response raw data, EV-D68” value ([5]; Concentration 0.1235 µM) of the same compound?
The value was 10.386 and 11.4321 and 12.9265.

What about the “Figure 7 dose-response raw data, EV-D68” value ([5]; Concentration 0.3704 µM) of the same compound?
Its value is 8.529 and 8.161 and 15.8928.

And the “Figure 7 dose-response raw data, EV-D68” value ([5]; Concentration 1.1111 µM)?
Its value is 91.9917 and 94.6194 and 110.886.

What about the “Figure 7 dose-response raw data, EV-D68” value ([5]; Concentration 3.3333 µM) of the same compound?
Its value is 101.502 and 102.252 and 110.761.

And the “Figure 7 dose-response raw data, EV-D68” value ([5]; Concentration 10 µM)?
Its value is 100.876 and 104.38 and 113.014.

What about the EC50 ([5]; Enterovirus D, EVD68, HeLa R19, […], read-out: EC50 Exp1) of the same compound?
Its EC50 is 3.04 µM.
